This note sets out measurements from patent US20060105941A1, “Mixed antibiotic codrugs” (ALLERGAN, INC., priority 2004, published 2006).

One assay relates to corneal ulcer. The experiment in a line: Eye drop given to a patient with corneal ulcer. It counts as in vivo. The note with it: patient suffering from corneal ulcer, over a period of two weeks. How it is done: An eye drop containing compound 1 is administered to a patient suffering from corneal ulcer over a period of two weeks.
The next assay concerns bacterial conjunctivitis. The experiment in a line: Eye drop given to a patient with bacterial conjunctivitis. In kind it is in vivo. The note with it: patient suffering from bacterial conjunctivitis, over a period of two weeks. How it is done:
An eye drop containing compound 1 is administered to a patient suffering from bacterial conjunctivitis over a period of two weeks.

On to `COc1c(N2CCN[C@H](C)C2)c(F)cc2c(=O)c(C(=O)OC(C)C(=O)Oc3cccc4c3C(=O)C3=C(O)C5(O)C(=O)C(C(N)=O)=C(O)C(N(C)C)C5CC3C4(C)O)cn(C3CC3)c12` (stereo partly shown) [Compound 1], for which, in the assay with corneal ulcer, the “bacterial infection after the complete treatment” value is “eliminated” and the “symptoms after the complete treatment” value is “relief of symptoms is experienced”. In addition, in the assay with bacterial conjunctivitis, the “bacterial infection after the complete treatment” value was “eliminated” and the “symptoms after the complete treatment” value is given as “relief of symptoms is experienced”.
